In ChEMBL document CHEMBL4334518, “Discovery and Pharmacological Studies of 4-Hydroxyphenyl-Derived Phosphonium Salts Active in a Mouse Model of Visceral Leishmaniasis” (J Med Chem, 2019):

Experiments:
Leishmania infantum [1] = assay: Antileishmanial activity against Leishmania infantum amastigotes infected in human THP1 cells after 96 hrs by prolong-gold antifade-reagent/DAPI staining based assay; format: functional, organism-based; details: THP-1, 96 h
Leishmania infantum [2] = assay: Antileishmanial activity against Leishmania infantum promastigote after 72 hrs by MTT assay; format: functional, organism-based
[3] = Drug uptake in Leishmania infantum LEM 3049 isolate promastigotes at 20 uM after 10 mins at 4 degC by fluorimetric assay; format: ADME
THP-1 = assay: Cytotoxicity against human THP1 cells assessed as reduction in cell viability after 72 hrs by MTT assay; format: cell-based; details: THP-1, 72 h
[4] = Drug uptake in Leishmania infantum LEM 3049 isolate promastigotes at 20 uM after 10 mins at 28 degC by fluorimetric assay; format: ADME
[5] = Selectivity index, ratio of EC50 for cytotoxicity against human THP1 cells to EC50 for antileishmanial activity against Leishmania infantum amastigotes infected in human THP1 cells; format: toxicity, cell-based; details: read-out: Ratio EC50
[6] = Drug uptake in ATP depleted Leishmania infantum LEM 3049 isolate promastigotes at 20 uM after 10 mins in presence of 2-deoxy-D-glucose by fluorimetric assay; format: ADME

## O=C(CCCCCCCCCCCCCCC[P+](c1cccc2ccccc12)(c1cccc2ccccc12)c1cccc2ccccc12)c1ccc(O)cc1O.[Br-]
Leishmania infantum [1]
  EC50: 1.25 µM
Leishmania infantum [2]
  EC50: 3.54 µM
[3]
  Drug uptake: Active
THP-1
  EC50: 12.8 µM
[4]
  Drug uptake: Active
[5]
  selectivity ratio: 10.3
[6]
  Drug uptake: Active
